Test results taken from patent publication US11116739B2, “Fixed dose combinations and formulations comprising ETC1002 and one or more statins and methods of treating or reducing cardiovascular disease” (Esperion Therapeutics, Inc., priority 2015, dated 2021).
Read-outs that look alike come from different tables or passages of the source.

Key:
[1] = Study 1002-012: effect of steady-state ETC-1002 on single-dose PK of simvastatin, pravastatin, rosuvastatin
Method: Serial PK blood samples were collected through the morning of Day −3. Starting on Day 1, all subjects received oral ETC-1002, 240 mg, once daily for 16 days. On the morning of Day 12, in addition to ETC-1002, subjects received a single dose of a statin drug, based on their cohort assignment; serial PK blood samples were collected.

[2] = clinical pharmacokinetics of ETC-1002; format: in vivo, human
Method: (§1) The entire clinical program for ETC-1002 (conducted between 2009 and 2015) has included approximately 1000 subjects and patients, with approximately 700 receiving ETC-1002 doses ranging from 2.5 up to 240 mg/day (multiple doses) for up to 12 weeks. There are 15 completed clinical studies (nine Phase 1 and six Phase 2), and integrated data summaries are based on the 6 completed Phase 2 studies.

[3] = system: rodent models of dyslipidemia; assay: primary pharmacology in rodent models of dyslipidemia; format: in vivo
Method: The primary pharmacology of ETC-1002 was evaluated in several well-characterized and predictive rodent models of dyslipidemia. In these studies, ETC-1002 lowered LDL-C and triglycerides (TGs) and increased high-density lipoprotein cholesterol (HDL-C).

[4] = safety pharmacology studies; conditions: over the range of exposures intended for clinical studies
mice, rats, and monkeys = assay: oral toxicology studies up to 12 months; format: in vivo
Source text: In toxicology studies, evaluations of ETC-1002 in mice, rats, and monkeys in oral studies up to 12 months in duration have been completed. […] Routine clinical laboratory parameters will continue to be monitored carefully in clinical trials.

[5] = pivotal 6-month rat study; conditions: both sexes, in vivo, oral, male and female rats, read-out: no-observed-adverse-effect level (NOAEL) dose
Method: (§2) In the pivotal 6-month rat study, the no-observed-adverse-effect level (NOAEL) dose was 30 mg/kg/day in male and female rats and the corresponding area under the curve during 24 hours (AUC0-24) values of the sum of ETC-1002 and ESP15228 were up to 528 μg·hr/mL. In the pivotal 12-month monkey study, the NOAEL dose was 60 mg/kg/day and the corresponding AUC0-24 value of the sum of ETC-1002 and ESP15228 was up to 4478 μg·hr/mL.

[6] = pivotal 12-month monkey study; conditions: in vivo, oral, read-out: NOAEL dose
Method: as §2

[7] = in-vitro and in-vivo genetic toxicology assays
[8] = system: major cytochrome P450 (CYP) enzymes; assay: in vitro CYP inhibition/induction studies; format: in vitro ADME; conditions: at clinically relevant plasma concentrations
major drug transporters = assay: in vitro drug transporter inhibition; format: in vitro ADME
patients [9] = assay: integrated analysis of six Phase 2 studies (efficacy); format: in vivo, human
Method: as §1

[10] = drug interaction with metformin or Ortho-Novum 1/35; format: in vivo, human
[11] = food-effect/bioequivalence study; design: species or system human; conditions: in vivo
[12] = Study 1002-007: effect of ETC-1002 on the PK of atorvastatin
Method: All patients started ETC-1002 at a dose of 60 mg/day, which was up-titrated every 2 weeks to 120 mg/day, then 180 mg/day, then 240 mg/day.

QT/QTc = assay: thorough QT/QTc (TQT) study (1002-022); format: in vivo, human; conditions: ETC-1002 240 mg daily for 9 days
patients [13] = assay: 6 integrated Phase 2 studies (safety, TEAEs, SAEs); format: in vivo, human
Method: as §1
The greatest number of patients experiencing at least 1 TEAE among ETC-1002-treated groups occurred in the ETC-1002 40-mg dose group (75.6%); this frequency was similar to the frequency of patients experiencing at least 1 TEAE in the placebo group (74.2%).

## CCC(C)(C)C(=O)O[C@H]1C[C@@H](C)C=C2C=C[C@H](C)[C@H](CC[C@@H]3C[C@@H](O)CC(=O)O3)[C@H]21 [simvastatin, reference compound]
[1]; single dose simvastatin 20 mg with steady-state ETC-1002 240 mg vs simvastatin alone, healthy subjects
  exposure (AUC0-inf) increased: 29%

## CC(C)(CCCCCC(=O)CCCCCC(C)(C)C(=O)O)C(=O)O [ESP15228]
[2]; human, in vivo
  Cmax dose proportionality: increase in proportion to increasing dose
  mean t1/2: 20 to 33 h
[2]; oral
  Tmax: 7 h
[1]; after 12th daily 240-mg dose of ETC-1002 with single dose simvastatin 20 mg, pravastatin 40 mg or rosuvastatin 10 mg
  plasma concentrations and PK parameters: consistent with those in previous monotherapy studies

## CC(C)(CCCCCC(O)CCCCCC(C)(C)C(=O)O)C(=O)O [ETC-1002, 8-hydroxy-2,2,14,14 tetramethylpentadecanedioic acid]
[3]
  LDL-C: lowered
  high-density lipoprotein cholesterol (HDL-C): increased
  triglycerides (TGs): lowered
[4]
  risks for patients identified in safety pharmacology: did not identify any significant risks
mice, rats, and monkeys; oral, up to 12 months, mice, rats, monkeys
  central nervous system, respiratory, or cardiovascular liabilities: No significant central nervous system, respiratory, or cardiovascular liabilities have been identified
mice, rats, and monkeys; rats and monkeys, changes reversible following cessation of treatment
  target organs in repeat-dose studies: liver and kidney
[5]
  NOAEL at 6 months: 30 mg/kg/day
[6]
  NOAEL at 12 months: 60 mg/kg/day
[7]
  clastogenicity: non-clastogenic
  mutagenicity: non-mutagenic
[8]
  inhibition or induction of major CYP enzymes: neither an inhibitor nor inducer
Major drug transporters
  inhibition of major drug transporters: does not appear to inhibit
Patients [9]; 180 mg on top of stable statin therapy
  LDL-C, placebo-adjusted LS means for percent change from baseline: ~22%
Patients [9]; ETC-1002 180 mg monotherapy
  LDL-C, placebo-adjusted LS means for percent change from baseline: approximately 32%
Patients [9]; accompanying reduced LDL-C
  non-HDL-C, TC, LDL particle number and apoB: corresponding reductions
Patients [9]; in vivo
  effect on HDL-C and TGs: generally neutral
[2]; human, in vivo
  Cmax dose proportionality: increase in proportion to increasing dose
[2]; human, in vivo, oral, read-out: Tmax
  Tmax: < 4 h
[2]; human, in vivo, oral, read-out: mean t1/2
  half-life: 15 to 27 h
[2]; up to 120 mg daily, linear from 140 to 220 mg daily doses
  systemic exposure, AUCtau,ss, dose proportionality: slightly more than dose-proportional increase
[10]; combination of ETC-1002 and Ortho-Novum 1/35 (combined oral contraceptive)
  drug interaction: No drug interaction
[10]; combination of ETC-1002 and metformin
  drug interaction: No drug interaction
[11]
  food effect: can be taken without regard to food
[12]; ETC-1002 in combination with atorvastatin 10 mg vs atorvastatin alone
  LDL-C lowering: incremental LDL-C lowering beyond atorvastatin alone
QT/QTc
  QT interval duration: does not prolong
  change in QTc: no significant change
  effect on heart rate and PR and QRS intervals: no clinically significant effect
Patients [13]; ETC-1002 120 mg group, Study 1002-008, Study Day 98, considered possibly related to study drug
  deaths: One patient died with cause unknown
Patients [13]; human, in vivo
  frequency of TEAEs, SOC infections and infestations: 11.6-25%
  patients experiencing at least 1 TEAE: 75.6%
Patients [13]; in vivo
  dose-related trends in the frequency of TEAEs: there did not appear to be any dose-related trends
  dose-related trends in the frequency of myalgia: no dose-related trends
  muscle-related SAEs: no muscle-related SAEs
  other measures of safety including laboratory results: no clinically significant trends
  reports of rhabdomyolysis: no reports
  safety profile: excellent safety profile

## CC(C)c1c(C(=O)Nc2ccccc2O)c(-c2ccccc2)c(-c2ccc(F)cc2)n1CC[C@@H](O)C[C@@H](O)CC(=O)O [ortho-hydroxy atorvastatin]
[12]; 10 mg atorvastatin plus 120 mg ETC-1002 daily vs 10 mg atorvastatin alone
  higher exposure than atorvastatin alone: approximately 60%
[12]; 10 mg atorvastatin plus ETC-1002 240 mg
  exposure versus atorvastatin alone: higher exposure
